Measurements published in patent US20240182945A1, “PRODUCTS FOR REGULATION OF EUKARYOTIC AND MICROBIAL CELLS GROWTH” (priority 2021, published 2024).

Legend:
Assay type in all cases: cell-based
[1] = tested on: bacteria of sputum from patients with lung diseases; assay: Sputum plated on 24-well plates with antibiotics at Cmax or C0-4 h, Algorithm #1 or #2; also: key: '+'—presence of bacterial growth, antibiotic ineffective; '−'—absence of bacterial growth, antibiotic effective
Description: Pathological material (sputum) from patients with lung diseases was plated into wells of 24-well plates filled with a nutrient medium supplemented with erythrocytes 5%, to which antibiotics were added taken at different concentrations.
Group #1—antibiotics were taken at concentrations close to a maximum (peak) concentration achievable at the site of infection Cmax
Algorithm #1. Lab technician, analyzed the appearance of bacterial growth by comparing the signs of bacterial growth in each well supplemented with antibiotic(s) at certain timepoint, with the signs of bacterial growth in the same well at previous time point(s).
Algorithm #2. Lab technician analyzed the appearance of bacterial growth by comparing the signs of bacterial growth in each well supplemented with antibiotic(s) with bacterial growth in antibiotic-free control

E. coli = assay: Growth of microbial modulator alone on antibiotic-supplemented Columbia agar; conditions: Bacterial set #4; Amikacin (1 μg/mL); Columbia agar with erythrocytes 5%, 24 h at 37 C
[2] = tested on: MIX—PP +BM (P. aeruginosa with microbial modulators); assay: Growth of mix PP + MM (original sputum) on antibiotic-supplemented Columbia agar; conditions: Columbia agar with erythrocytes 5%, 24 h at 37 C
P. aeruginosa = assay: Growth of primary pathogen alone on antibiotic-supplemented Columbia agar; conditions: Columbia agar with erythrocytes 5%, 24 h at 37 C
Description: Four sputum samples from patients with lung infections were used. Pure bacterial culture of each microorganisms was obtained by routine microbiological methods.
In this case this antibiotic at MIC of 16 ug/mL was used in the following studies. PP alone, or Microbial Modulators (MM) alone or the original sputum were plated on the wells of 24 well plate filled with nutrient Columbia agar supplemented with erythrocytes 5% and supplemented with antibiotics taken as MIC determined against PP, but not more than 16 μg/mL and incubated 24 h at 37 C.

S. haemolyticus = assay: Growth of microbial modulator alone on antibiotic-supplemented Columbia agar; conditions: Bacterial set #4; Amikacin (1 μg/mL); Columbia agar with erythrocytes 5%, 24 h at 37 C
[3] = tested on: bacteria of sputum from patients with lung diseases; assay: Standard antibiotic susceptibility study using the microbroth dilution method (Algorithm #3); also: key: '+'—presence of bacterial growth, antibiotic ineffective; '−'—absence of bacterial growth, antibiotic effective
Source text: Algorithm #3—Standard antibiotic susceptibility study using the microbroth dilution method.

S. aureus = assay: Growth of microbial modulator alone on antibiotic-supplemented Columbia agar; conditions: Bacterial set #3; Ceftazidime (2 μg/mL); Columbia agar with erythrocytes 5%, 24 h at 37 C
B. thailandensis = conditions: Bacterial set #3; Ceftazidime (2 μg/mL); Columbia agar with erythrocytes 5%, 24 h at 37 C
[4] = Algorithm #1, antibiotic at C0-4 h
[5] = Algorithm #1, antibiotic at Cmax
[6] = Algorithm #2, antibiotic at C0-4 h
[7] = Algorithm #2, antibiotic at Cmax
[8] = Bacterial set #4, Amikacin (1 μg/mL)
[9] = Bacterial set #3, Ceftazidime (2 μg/mL)

Structure (SMILES)	ATB efficacy [1, 4]	ATB efficacy [1, 5]	ATB efficacy [1, 6]	ATB efficacy [1, 7]	microbial growth, EC (BM alone) (E. coli)	Presence of PP in Mix (PP + MM) [2, 8]	microbial growth, PA (PP alone) (P. aeruginosa; [8])	microbial growth, SH (BM alone) (S. haemolyticus)	ATB efficacy [3]	microbial growth, SA (BM alone) (S. aureus)	Presence of PP in Mix (PP + MM) [2, 9]	microbial growth, BT (BM alone) (B. thailandensis)	microbial growth, PA (PP alone) (P. aeruginosa; [9])
NCC[C@H](O)C(=O)N[C@@H]1C[C@H](N)[C@@H](O[C@H]2O[C@H](CN)[C@@H](O)[C@H](O)[C@H]2O)[C@H](O)[C@H]1O[C@H]1O[C@H](CO)[C@@H](O)[C@H](N)[C@H]1O [Amikacin]	−	−	−	−	−	−	+	+	−				
CC(C)(O/N=C(\C(=O)N[C@@H]1C(=O)N2C(C(=O)[O-])=C(C[n+]3ccccc3)CS[C@H]12)c1csc(N)n1)C(=O)O [Ceftazidime]	+	+	+	+					+	+	−	+	+
